Tests used:
Human orthopneumovirus [1] = assay: Antiviral activity against RSV A2 infected in A549 cells incubated for 3 days by cell titer glo-based luminescence assay; assay type: functional, organism-based; conditions: human respiratory syncytial virus, A2, A549, 72 h
Human orthopneumovirus [2] = assay: Antiviral activity against RSV A2 infected in Hep2 cells preincubated for 1 hr followed by RSV infection and measured after 3 days by ELISA method; assay type: functional, organism-based; conditions: human respiratory syncytial virus, A2, HEp-2
[3] = Antiviral activity against RSV B-WST infected in Hep2 cells preincubated for 1 hr followed by RSV infection and measured after 3 days by ELISA method; assay type: functional, cell-based; conditions: human respiratory syncytial virus, HEp-2
[4] = system: Respiratory syncytial virus; assay: Antiviral activity against Respiratory syncytial virus; assay type: functional, organism-based; conditions: human respiratory syncytial virus
Human orthopneumovirus [5] = assay: Antiviral activity against RSV A2 infected in HAE-derived cells; assay type: functional, organism-based; conditions: human respiratory syncytial virus
[6] = system: Respiratory syncytial virus; assay: Antiviral activity against Respiratory syncytial virus by CPE reduction assay; assay type: functional, organism-based; conditions: human respiratory syncytial virus
[7] = system: Respiratory syncytial virus; assay: Antiviral activity against recombinant RSV infected in HeLa cells assessed as reduction in eGFP expression after 3 days by laser microscopic analysis; assay type: functional, organism-based; conditions: human respiratory syncytial virus, 72 h
Human orthopneumovirus [8] = assay: Antiviral activity against RSV A2 infected in Hep2 cells by CPE reduction assay; assay type: functional, organism-based; conditions: human respiratory syncytial virus, A2, HEp-2
[9] = Antiviral activity against RSV B-WST infected in Hep2 cells CPE reduction assay; assay type: functional, cell-based; conditions: human respiratory syncytial virus, HEp-2
[10] = Inhibition of Respiratory syncytial virus RNA-dependent RNA polymerase
[11] = Oral bioavailability in BALB/c mouse; assay type: ADME, organism-based; conditions: in vivo
Human orthopneumovirus [12] = assay: Antiviral activity against HRSV expressing m-cherry infected in Hep2 cells after 48 hrs post infection by fluorescence based assay; assay type: functional, organism-based; conditions: human respiratory syncytial virus, HEp-2, 48 h
[13] = Oral bioavailability in rat; assay type: ADME, organism-based; conditions: in vivo
[14] = Oral bioavailability in dog; assay type: ADME, organism-based, Canis lupus familiaris; conditions: in vivo
Human respirovirus 3 = assay: Antiviral activity against Human parainfluenza virus 3; assay type: functional, organism-based
Human orthopneumovirus [15] = assay: Antiviral activity against RSV type A; assay type: functional, organism-based; conditions: human respiratory syncytial virus
Human orthopneumovirus [16] = assay: Antiviral activity against RSV type B; assay type: functional, organism-based; conditions: human respiratory syncytial virus
Hepatitis C virus = assay: Antiviral activity against Hepatitis C virus; assay type: functional, organism-based, Hepacivirus hominis
Influenza A virus = assay: Antiviral activity against influenza A virus; assay type: functional, organism-based
Human orthopneumovirus [17] = assay: Antiviral activity against RSV A2 infected in Hep2 cells assessed as reduction in virus-induced cytopathic effect after 5 days by resazurin dye based PCR analysis; assay type: functional, organism-based; conditions: human respiratory syncytial virus, A2, HEp-2, 120 h
[18] = Antiviral activity against RSV type B 1276 infected in Hep2 cells assessed as reduction in virus-induced cytopathic effect after 5 days by resazurin dye based PCR analysis; assay type: functional; conditions: human respiratory syncytial virus, 1276, HEp-2, 120 h; pooled result: one value given for 5 cell lines, strains, targets or settings
[19] = Antiviral activity against RSV type A Memphis 37 infected in Hep2 cells assessed as reduction in virus-induced cytopathic effect after 5 days by resazurin dye based PCR analysis; assay type: functional, cell-based; conditions: human respiratory syncytial virus, Memphis 37, HEp-2, 120 h
[20] = Antiviral activity against RSV type A VAN1160 infected in Hep2 cells assessed as reduction in virus-induced cytopathic effect after 5 days by resazurin dye based PCR analysis; assay type: functional, cell-based; conditions: human respiratory syncytial virus, VAN1160, HEp-2, 120 h
[21] = Antiviral activity against RSV type A 1211 infected in Hep2 cells assessed as reduction in virus-induced cytopathic effect after 5 days by resazurin dye based PCR analysis; assay type: functional, cell-based; conditions: human respiratory syncytial virus, 1211, HEp-2, 120 h
[22] = Antiviral activity against RSV type A 492 infected in Hep2 cells assessed as reduction in virus-induced cytopathic effect after 5 days by resazurin dye based PCR analysis; assay type: functional, cell-based; conditions: human respiratory syncytial virus, 492, HEp-2, 120 h
[23] = Antiviral activity against RSV B-WST infected in Hep2 cells assessed as reduction in virus-induced cytopathic effect after 6 days by resazurin dye based PCR analysis; assay type: functional, cell-based; conditions: human respiratory syncytial virus, HEp-2, 144 h
[24] = Antiviral activity against RSV type A 689 infected in Hep2 cells assessed as reduction in virus-induced cytopathic effect after 5 days by resazurin dye based PCR analysis; assay type: functional, cell-based; conditions: human respiratory syncytial virus, 689, HEp-2, 120 h
[25] = Plasma clearance in Beagle dog at 2 mg/ml, iv or 1.2 mg/ml, po measured up to 24 hrs by LC-MS/MS analysis; assay type: ADME, organism-based, Canis lupus familiaris
Human orthopneumovirus [26] = assay: Antiviral activity against RSV A infected in HeLa cells; assay type: functional, organism-based; conditions: human respiratory syncytial virus, type A
[27] = Antiviral activity against RSV B infected in HeLa cells; assay type: functional, cell-based; conditions: human respiratory syncytial virus
Human orthopneumovirus [28] = assay: Antiviral activity against Respiratory syncytial virus A plaque reduction assay; assay type: functional, organism-based
[29] = Oral bioavailability in mouse; assay type: ADME, organism-based; conditions: in vivo
[30] = Antiviral activity against Respiratory syncytial virus B plaque reduction assay; assay type: functional, Human respiratory syncytial virus B

## O=c1n(Cc2nc(-c3nccs3)cn2CCCCO)c2cnccc2n1C1CC1
Human orthopneumovirus [1]
  EC50: 58 nM

## O=C(NC1CC1)c1cc2c(s1)-c1ccccc1N(C(=O)c1ccc(NC(=O)c3cccnc3N3CCC4(CC3)COC4)cc1)CC2
Human orthopneumovirus [2]
  EC50: 10 nM
[3]
  EC50: > 50000 nM

## Cc1ccc(NS(C)(=O)=O)c(C(=O)N2CCCC[C@H]2c2cc3nc4c(c(N5CCOCC5)n3n2)CCCC4)c1
[4]
  EC50: 0.56 nM

## CC1(C(=O)N2CC3(C2)C(=O)N(Cc2nc4c(n2CCCC(F)(F)F)CCCC4)c2ccccc23)CC1
Human orthopneumovirus [1]
  EC50: < 100 nM

## CNc1nc(N)nc2c1ncn2[C@@H]1O[C@](C)(CO[P@@](=O)(N[C@@H](C)C(=O)OC(C)C)Oc2ccccc2)[C@@H](O)[C@H]1F
Human orthopneumovirus [5]
  EC50: 0.052 nM

## CC(C)OC(=O)N1CCC2(CC1)C(=O)N(Cc1nc3cc(Cl)ccc3n1CCCC#N)c1cnccc12
[6]
  EC50: 0.024 nM

## O=c1n(Cc2cc3cnccc3n2CCCC(F)(F)F)c2cnccc2n1CC(F)(F)F
[7]
  EC50: 0.25 nM

## CC(C)CCn1c(Cn2c(=O)n(C3CCN(S(C)(=O)=O)CC3)c3ccccc32)nc(=O)c2ccccc21
[6]
  EC50: 5.8 nM

## CCc1cc(C(=O)N2CCc3sccc3[C@H]2C)nc2cc(-c3ccc(N4CC[C@H](C(=O)O)C4)cc3F)nn12
[4]
  EC50: 2.75 nM

## O=c1n(Cc2cc3cc(Cl)ccc3n2CCCCO)c2cnccc2n1C1CC1
[7]
  EC50: 2 nM

## Cc1cc2n(Cc3nc(OCC4CCOC4)c4cc(C#N)ccc4n3)c(=O)c3ccccc3n2n1 (configuration not stated)
[6]
  EC50: 2.8 nM

## CC(C)CCn1c(CN2C(=O)C3(CC3)c3ccccc32)nc2cc(CN)ccc21
[4]
  EC50: 31 nM

## Cc1cn(Cc2nc3ccccc3s2)c(=O)n(Cc2ccc(-c3csnn3)cc2)c1=O
Human orthopneumovirus [8]
  EC50: 1600 nM
[9]
  EC50: > 50000 nM

## O=C(NC1CC1)c1cc2c(s1)-c1ccccc1N(C(=O)c1ccc(NC(=O)c3ccccc3-c3ccccc3)cc1)CC2
Human orthopneumovirus [2]
  EC50: 750 nM
[3]
  EC50: > 20000 nM

## COC(=O)N1CC2(C1)C(=O)N(Cc1ncc3cc(C)ccc3c1-c1cncnc1)c1ccccc12
[6]
  EC50: 0.2 nM

## COc1cc(C(=O)NC[C@@](O)(c2cc3c(c(-c4ccc(F)cc4)n2)NC[C@@]3(C)N)C(F)(F)F)ccc1OCCO
[4]
  EC50: < 1000 nM
[10]
  IC50: < 1000 nM

## Cc1cccc(-c2ccc([C@@H]3[C@@H](CO)N4CCCCN(S(=O)(=O)c5cn(C)cn5)C[C@@H]34)cc2)c1
Human orthopneumovirus [8]
  EC50: 3300 nM
[9]
  EC50: > 50000 nM

## NC1CCN(c2ncc(CN3C(=O)C4(CC4)c4ccc(F)cc43)c(NCCCO)n2)C1 (configuration not stated)
Human orthopneumovirus [1]
  EC50: 34 nM

## CCc1ccc(NS(C)(=O)=O)c(C(=O)N(C)[C@@H](CC)c2cc3nc(N4CC[C@H](N)C4)c(C)cn3n2)c1
[4]
  EC50: 0.15 nM

## CC(C)OC(=O)N1CC2(C1)C(=O)N(Cc1nc3cc(Br)ccc3n1CCCO)c1ccccc12
[6]
  EC50: 0.8 nM
[11]
  bioavailability: 72%

## c1coc(-c2nn3c(Cn4cnc5ccccc54)nnc3s2)c1
[4]
  EC50: 660 nM

## Cc1cccc2ncnc(N3CCCC[C@H]3c3cc4nc(N5CCC5)cc(N5CCOCC5)n4n3)c12
[4]
  EC50: 10 nM

## O=C1N(Cc2nc3cc(Cl)ccc3n2C2CCS(=O)(=O)C2)c2cnccc2C12CC2 (configuration not stated)
[6]
  EC50: 1.9 nM

## N#Cc1ccc(-c2ccc3c(c2)[C@H]2[C@H](CCN2C(=O)c2ccccc2F)[C@H](CO)N3)cc1
Human orthopneumovirus [8]
  EC50: 1400 nM
[9]
  EC50: 6800 nM

## O=C(O)c1cc(C(=O)O)n(Cc2ccc(Cl)cc2Cl)n1
Human orthopneumovirus [12]
  EC50: 122000 nM

## Cc1ccc([C@]23Cn4cccc4C(=O)N2CCN3C(=O)c2conc2C)cn1
[13]
  bioavailability: 59%
Human orthopneumovirus [5]
  EC50: 8.4 nM
[14]
  bioavailability: 100%

## Nc1ccn([C@@H]2O[C@@](CO)(CCl)[C@@H](O)[C@H]2F)c(=O)n1 [ALS-8112]
Human respirovirus 3
  EC50: 1300 nM
Human orthopneumovirus [15]
  EC50: 90 to 450 nM
Human orthopneumovirus [16]
  EC50: 90 to 450 nM
Hepatitis C virus
  EC50: > 100000 nM
Influenza A virus
  EC50: > 100000 nM

## Cc1cnc(N2CC3(CCOCC3)C2)c(C(=O)Nc2ccc(C(=O)N3CCc4cc(C(=O)Nc5c(C)cccc5F)sc4-c4ccccc43)cc2)c1 [PC-786]
Human orthopneumovirus [17]
  EC50: 0.5 nM
[18]
  EC50: 20.2 nM
[19]
  EC50: 0.46 nM
[20]
  EC50: 0.46 nM
[21]
  EC50: 0.46 nM
[22]
  EC50: 0.46 nM
[23]
  EC50: 27.3 nM
[24]
  EC50: 0.46 nM

## CS(=O)(=O)CCCn1c(Cn2c(=O)n(CC(F)(F)F)c3ccncc32)cc2cc(Cl)ccc21 [RILEMATOVIR]
[25]
  clearance: 9 mL/min/kg
Human orthopneumovirus [26]
  EC50: 0.2 to 20 nM
[7]
  EC50: 0.46 to 0.5 nM
[27]
  EC50: 0.2 to 20 nM

## NCc1ccc2c(c1)nc(CN1C(=O)C3(CC3)c3ccc(F)cc31)n2CCCC(F)(F)F [SISUNATOVIR]
Human orthopneumovirus [28]
  EC50: 0.1 to 1.4 nM
[29]
  bioavailability: 46%
[30]
  EC50: 0.1 to 1.4 nM
[14]
  bioavailability: 63%

## O=C1Nc2ccccc2C(c2ccccc2)=N[C@@H]1Nc1nnc(-c2ncc(C(F)(F)F)cc2N2CCOCC2)o1 [ZELICAPAVIR]
[4]
  EC50: < 400 nM
